Data set [1] has as its system HCT-116 MCCs. The data set can be described thus: MCC penetration assay, effect-based (BrdUrd S-phase labeling after exposure from one side). Format: cell-based, human. Conditions: for decrease in drug exposure seen by cells on the far side relative to the near side / trend of BrdUrd labeling with drug concentration: 1 day after 1-h exposure; for decrease in drug exposure seen by cells on the far side relative to the near side: near-side concentration matching the effect of 10 μM on the far side; for trend of BrdUrd labeling with drug concentration: first 30 μm of tissue. As to the method:
Standard tissue culture inserts 10 (CM 12 mm, pore size 0.4 μm, Millipore, Nepean, ON, Canada) were coated with 150 μl collagen (rat tail type I, Sigma), dissolved in 0.01 M HCl and diluted 1:4 with 60% Ethanol to 0.75 mg/ml, and allowed to dry over night. HCT-116, 0.75×10^6 in 0.5 ml growth media, were then added to the inserts 10 and incubated for 15 hours to allow the cells to attach. The cultures 16 were then incubated for 2 days in custom built growth vessels 21 (FIG. 1(b)) to form multilayered cell cultures (MCCs) 16 which are ˜150 μm in thickness. Each growth vessel 21 includes a frame 23 that held the inserts 10 completely immersed in 130 ml of stirred media (700 rpm, 25 mm stir bar) under continual gassing (5% CO2, balance air) at 37° C. The MCCs 16 were grown in batches of 8 cultures of which 6 were treated with drug and 2 were kept as untreated controls.
MCCs 16 were exposed to anthracyclines from one exposed side 18 using a polyarcylate apparatus 22 (FIG. 2) designed such that the bottom of each insert 10 is clamped against a flat block 24 of apparatus 22 with a layer of Parafilm (American National Can, Chicago, Ill., USA) sandwiched in between to ensure a complete seal. Each MCC 16 was exposed to a 7.5 ml stirred reservoir 28 kept under controlled gassing and temperature. A silicone O-ring 34 was used to seal the gap between the MCC 16 and the orifice in the reservoir 28. Once placed in the apparatus 22, MCCs 16 were allowed to equilibrate for 45 minutes, drug was then added to the growth medium at concentrations of 0.3, 1, 3 and 10 μM. After 1-hour drug exposure, the reservoirs 28 were rinsed twice with fresh media. MCCs 16 were then incubated for a second hour prior to removal from the apparatus 22 to allow initial drug wash out from the exposed side 18 only. MCCs 16 were then removed, rinsed in fresh media three times for 15 seconds and placed in a growth vessel 21 containing 2 untreated control MCCs 16. Media was replaced at 1 and 4 hours following return to the growth vessel 21, to reduce residual drug levels. Incubation with control MCCs 16 ruled out the possibility that drug wash out into the media from the exposed sides 18 of the MCCs 16 was affecting results. MCCs 16 were left for 1 or 3 days from the time of beginning drug exposure to allow manifestation of drug effect. Following this, 100 μM BrdUrd (5-bromo-2-deoxyuridine, Sigma Chemical, Oakville, ON, Canada) was added to the media and cultures incubated for 4 hours to label S-phase cells. MCCs 16 were then removed, frozen in O.C.T. medium (Tissue-TEK, Torrance, Calif., USA) and stored at −80° C. until sectioning.
MCC cryosections (10 μm) were air dried for 24 hours and then fixed in a 1:1 mixture of acetone-methanol for 10 minutes at room temperature. Slides were immediately transferred to distilled water for 10 minutes and then treated with 2 M HCl at room temperature for 1 hour followed by neutralization for 5 minutes in 0.1 M Sodium Borate. Slides were then washed in distilled water and transferred to a PBS (phosphate buffered saline) bath. Subsequent steps were each followed by a 5 minute wash in PBS. BrdUrd incorporated into DNA was detected using a 1:200 dilution of monoclonal mouse anti-BrdUrd (clone BU33, Sigma) followed by 1:100 dilution of anti-mouse peroxidase conjugate antibody (Sigma) and 1:10 dilution of metal enhanced DAB substrate (Pierce, Rockford, Ill.). Slides were then counterstained with haematoxylin, dehydrated and mounted using Permount (Fisher Scientific, Fair Lawn, N.J., USA).
The imaging system consisted of a flurouresence microscope (Zeiss III RS, Oberkochen, Germany), a cooled, monochrome CCD video camera (model 4922, Cohu, San Diego, Calif., USA), frame grabber (Scion, Frederick, Md., USA), a custom built motorized x-y stage and customized NIH-Image software (public domain program developed at the U.S. National Institutes of Health) running on a G4 Macintosh computer. […]

For data set [2] the following is noted: weak bases; cited from earlier work.
Another data set deals with cells. The following applies: uptake rate vs DOX; cited from earlier work.
Data set [3] has as its system HCT-116 MCCs. Put plainly: Fluorescence based evaluation of anthracycline penetration in MCCs. Conditions: immediately after 1-h, 10 µM drug exposure. In kind it is cell-based, human. As to the method: MCCs 16 were exposed to anthracyclines from one exposed side 18 using a polyarcylate apparatus 22 (FIG. 2) designed such that the bottom of each insert 10 is clamped against a flat block 24 of apparatus 22 with a layer of Parafilm (American National Can, Chicago, Ill., USA) sandwiched in between to ensure a complete seal. Each MCC 16 was exposed to a 7.5 ml stirred reservoir 28 kept under controlled gassing and temperature. A silicone O-ring 34 was used to seal the gap between the MCC 16 and the orifice in the reservoir 28. […] After 1-hour drug exposure, the reservoirs 28 were rinsed twice with fresh media. […]
The imaging system consisted of a flurouresence microscope (Zeiss III RS, Oberkochen, Germany), a cooled, monochrome CCD video camera (model 4922, Cohu, San Diego, Calif., USA), frame grabber (Scion, Frederick, Md., USA), a custom built motorized x-y stage and customized NIH-Image software (public domain program developed at the U.S. National Institutes of Health) running on a G4 Macintosh computer. […] For drug fluorescence visualization, MCCs were imaged using unmounted cryosections 1-hour after sectioning using a 510-555 nm excitation filter and a 575-640 nm emission filter.
Using the NIH-Image software application and user supplied algorithms, digital images of BrdUrd staining and drug fluorescence within MCC cryosections were analyzed in the following manner. […]

Data set [4] relates to V79 multicellular spheroids. The following applies: ~3.5 μM×h exposure, 24 hours in drug free medium before disaggregation; cited from earlier work.
The test system of data set [5] is multi-layered cell culture. Put plainly: Example 1: BrdUrd labeling in multi-layered cell culture exposed from one side. In kind it is cell-based. Conditions: one hour exposure from one side, 24 hours in fresh media; 5, 10 and 100 μM. How it is done:
FIGS. 5 and 6 illustrate test results relating to a multi-layered cell culture 16 exposed to the anthracycline doxorubicin (DOX) (i.e. the test material). Cultures 16 were exposed to doxorubicin (at differing concentrations) from one side 18 only for one hour and then incubated for 24 hours in fresh media. Cultures 16 were then exposed to bromodeoxyuridine (BrdUrd) for two hours to label proliferating cells. BrdUrd is a thymidine analogue that is incorporated into DNA during the S phase of the cell cycle and is therefore an effective marker of cellular proliferation. Following BrdUrd exposure, cultures 16 were frozen and cyrosections taken from them. Cryosections were then immunostained to detect BrdUrd labeled S-phase cells. FIG. 6 illustrates the distribution of BrdUrd-labelled cells as a function of position within the cultures. The results clearly indicate that tissue penetration limits doxorubicin effectiveness.

Consider four molecules from patent US7749728B2, “Method and system for measuring the penetration of drugs and other substances into tissue” (Cabenda Pharmaceutical Research Limited, priority 2003, dated 2010).

In general, pKa refers to the negative logarithm of the acid dissociation constant. With `O=C1c2c(O)ccc(O)c2C(=O)c2c(NCCNCCO)ccc(NCCNCCO)c21` [MIT, mitoxantrone], in the data set with HCT-116 MCCs [1], the “decrease in drug exposure seen by cells on the far side relative to the near side” value was “greater than 30 fold” and the “trend of BrdUrd labeling with drug concentration” value (“trend of BrdUrd labeling” below) is recorded as “increase in labeling on the near side with increasing drug concentration”. The pKa in data set [2] is reported as around 8.3.
In the case of `COc1cccc2c1C(=O)c1c(O)c3c(c(O)c1C2=O)C[C@@](O)(C(C)=O)C[C@@H]3O[C@H]1C[C@H](N)[C@H](O)[C@H](C)O1` [DAU, daunorubicin], the “rate of entering cells relative to DOX” value in the data set with cells is given as 3-10 times. In addition, in the data set on HCT-116 MCCs [1], the “decrease in drug exposure seen by cells on the far side relative to the near side” value is recorded as around 30 fold and the “trend of BrdUrd labeling” value is “decreasing labeling with increasing drug concentration”. Moreover, the pKa in data set [2] is on record as around 8.3. Besides, in the data set with HCT-116 MCCs [3], the “fluorescence level on the near side relative to DOX” value is around 7 times.
As for `COc1cccc2c1C(=O)c1c(O)c3c(c(O)c1C2=O)C[C@@](O)(C(=O)CO)C[C@@H]3O[C@H]1C[C@H](N)[C@@H](O)[C@H](C)O1` [EPI, epirubicin], the “rate of entering cells relative to DOX” value with cells was “approximately twice”. Further, the “concentration at which an equal effect is exerted on either edge of the MCC” value with HCT-116 MCCs [1] (1 hour exposure at 0.3, 1, 3 and 10 μM, 1 day incubation) was determined as 10 µM. For the same molecule, in the data set on HCT-116 MCCs [1], the “decrease in drug exposure seen by cells on the far side relative to the near side” value is reported as around 10 fold and the “trend of BrdUrd labeling” value is on record as “decreasing labeling with increasing drug concentration”. The pKa in data set [2] is on record as around 8.1. The “fluorescence level on the near side relative to DOX” value with HCT-116 MCCs [3] is reported as around 1.5 times.
For `COc1cccc2c1C(=O)c1c(O)c3c(c(O)c1C2=O)C[C@@](O)(C(=O)CO)C[C@@H]3O[C@H]1C[C@H](N)[C@H](O)[C@H](C)O1` [DOX, doxorubicin], in data set [4], the “surviving fraction, 130 μm into the tissue” value is given as around 0.6 and the “surviving fraction, exposed outer layers” value was around 0.2. In the data set with HCT-116 MCCs [1], the “decrease in drug exposure seen by cells on the far side relative to the near side” value was around 12 fold and the “trend of BrdUrd labeling” value is “decreasing labeling with increasing drug concentration”. Moreover, the pKa in data set [2] is on record as around 8.3. Also, in data set [5], the “effect on proliferating cells as a function of position within the culture” value is “at low concentrations doxorubicin only affects cells close to the site of exposure”.
